Entries after “also recorded” stand apart in the source; their conditions may differ.

Here are results for one substance from patent US7981861B2, “Method of performing angioplasty with a GLP-1 molecule” (Amylin Pharmaceuticals, Inc., priority 2000, dated 2011).

In one assay the test system is dogs. The experiment in a line: 10-minute left circumflex coronary (LCx) occlusion/reperfusion, myocardial stunning in dogs. In kind it is in vivo, dog. The conditions noted are these: GLP-1 infusion for 24 hours beginning 1 minute prior to reperfusion. The protocol:
Two dogs were studied at baseline before, during, and for 6 hours after a 10-minute complete left circumflex coronary (LCx) occlusion. Each dog underwent occlusion/reperfusion in the presence and absence of GLP-1 infusion for 24 hours, beginning 1 minute prior to reperfusion. GLP-1 infusion enhanced the recovery of ventricular wall regional dysfunction following 10 minutes of coronary artery occlusion.

In the next assay the test system is Wistar rats. The experiment in a line: LAD coronary artery occlusion (25 min) and 2-hour reperfusion, infarct size in anesthetized rats. In kind it is in vivo, rat. The protocol: Wistar rats were anesthetized with thiopentone sodium. The left anterior descending (LAD) coronary artery was occluded. After 25 minutes of occlusion, reperfusion was allowed for 2 hours. This animal model has been described previously. Zacharowski, et al., Br. J. Pharmacol. 128; 945-952 (1999).
GLP-1 (1.5 μg/kg/min) was infused into anesthetized rats (n=10), commencing 10 minutes prior to reperfusion and continuing throughout the 2-hour reperfusion. Controls were sham operated with no occlusion (n=7), LAD occlusion+reperfusion+administration of saline (n=12), and LAD occlusion and reperfusion with a buffer of 10 mM sodium acetate, 5.05% D-mannitol, pH 4.5, (“vehicle”) at 1.5 mL/kg/hour (n=10).
Following reperfusion, the coronary artery was reoccluded, and Evans Blue dye (4 ml, 2% w/v) was injected into the left ventricle of the heart via a right carotid artery cannula. Evans Blue stains perfused myocardium, while occluded vascular bed remains uncolored. Animals were then killed by anesthetic overdose and the hearts were removed for examination. Hearts were sectioned and the right ventricular wall was removed. The area at risk (pink) was separated from the non-ischemic tissue (blue). The area at risk (pink) was then cut into smaller pieces and stained with p-nitroblue tetrazolium (NBT; 0.5 mg/ml) for 20 min. at 37° C. In the presence of intact dehydrogenase enzyme systems (viable myocardium), NBT forms a dark blue compound. Areas of necrosis lack the enzyme and remain unstained. Tissue was separated according to staining and weighed to determine infarct size as a percentage of the area at risk.

As for GLP-1, the “stunning period during reperfusion after subcritical ischemia” value in the assay on dogs (dogs) is “significantly reduced; also recorded: reduced stunning”. In the assay on dogs (two dogs), the “recovery of ventricular wall regional dysfunction following 10 minutes of coronary artery occlusion” value was “enhanced”. Moreover, in the assay on Wistar rats (GLP-1 1.5 μg/kg/min infusion from 10 minutes prior to reperfusion and throughout 2-hour reperfusion, n=10, vehicle 46±4%, saline 50±3%), the “infarct size as a percentage of the area at risk” value amounted to 31±4%. Besides, the “reduction in infarct size compared with the vehicle group” value with Wistar rats (GLP-1 1.5 μg/kg/min infusion, statistically significant (p<0.05)) is “approximately 33%”. Also, the “reduction of infarct size (summary statement)” value in the assay on Wistar rats (GLP-1 during last 10 min. of 25 min. ischemia and throughout 2-hour reperfusion, rats) turned out to be 30%. Also, in the assay with Wistar rats (rats, GLP-1 during last 10 min. of ischemia and throughout 2-hour reperfusion), the hemodynamics entry is listed as “significantly improved”.
